The source of these data is patent US20120134946A1, “COMPOSITION HAVING ANTIOXIDANT AND WHITENING EFFECTS CONTAINING A CONCENTRATE OF KOREAN RICE WINE” (AMOREPACIFIC CORPORATION, priority 2009, published 2012).

For test [1], the system named is Human keratinocyte HaCaT cell line. Description: ROS production inhibiting effect using fluorescent substances (DCFH-DA, UVB). Type of test: cell-based. The following applies: light or radiation study, HaCaT cells, UVB 30 mJ/cm^2, DCF fluorescence, read-out: ROS production inhibiting effect (% of control). As for the experimental part: Human keratinocyte HaCaT cell line was used. The cells were seeded on a 96-well black plate for fluorescence measurement, with 2.0×10^4 cells per well, cultured under the condition of 37° C. and 5% CO2 for 1 day using Dulbecco's modified Eagle's medium (DMEM, FBS 10%) containing penicillin/streptomycin, and then treated with the test sample. The cells were cultured under the condition of 37°C. and 5% CO2 for 1 day using serum (FBS)-free DMEM containing penicillin/streptomycin treated with the test sample as described in Table 2. After culturing for 24 hours, after washing with HEPES-buffered control salt solution (HCSS) to remove the remaining medium and adding 20 μM 2′,7′-dichlorodihydro-fluorescein diacetate (DCFH-DA, Molecular Probes, Inc., 100 μL), the cells were cultured under the condition of 37° C. and 5% CO2 for 20 minutes and then washed with HCSS. Then, after adding HCSS (100 μL) treated with the samples of different concentrations, the fluorescence intensity of the ROS, oxidized dichlorofluorescein (DCF), was measured using a fluorescence plate reader (Ex=485 nm, Em=530 nm). Then, after immediately and 3 hours after irradiation of UVB (30 mJ/cm^2), fluorescence intensity was measured using the fluorescence plate reader (Ex=485 nm, Em=530 nm). Trolox was used as control.

Test [2] is described as follows: Antioxidant effect (DPPH test). Particulars: 100 μM DPPH, 37° C., 30 minutes, absorbance at 540 nm. Format: biochemical. As for the experimental part:
The antioxidant effect was determined as the concentration at which absorbance is decreased to 50% of control (IC50). 100 μM DPPH solution (in ethanol, 190 μL) was mixed with the concentrated makgeolli prepared in Example 1 or control (10 μL each). The resulting mixture was kept at 37° C. for 30 minutes and absorbance was measured at 540 nm. Trolox, which is widely used as synthetic antioxidant, was used as the control.
A general note: Loss of DPPH colour is used to gauge radical scavenging.

Another test concerns human skin. The test is described as follows: Whitening effect for human skin (UVB-induced tanning). Format: in vivo. Particulars: 1% topical on UVB-tanned upper arm, 10 weeks, 12 healthy men, colorimeter. The method, then: The whitening effect of the concentrated makgeolli of Example 1 for human skin was tested as follows.
12 healthy men were used as test subjects. An opaque tape with a hole of 1.5 cm diameter was attached on the upper arm of the test subject and UVB of about 1.5-2 times the minimal erythemal dose was irradiated to induce tanning.
After the UV radiation, 1% concentrated makgeolli of Example 1 (in 7:3 1,3-butylene glycol:ethanol solvent), 1% hydroquinone or 1% solvent (vehicle, negative control) was applied. […] The skin color was measured every week using the colorimeter CR2002 (Minolta, Japan).
The difference in skin color (ΔL*) at the initiation of application and after the completion of test was calculated according to Equation 2. Whitening effect was determined from the ΔL* of the sample-applied portion and the control portion. A ΔL* value of about 2 can be evaluated as distinct whitening effect and one of about 1.5 can be evaluated as positive whitening effect.
ΔL*=L*after the completion of test−L*at the initiation of application Equation 2

Test [3] deals with Mouse melanocytes (Mel-Ab cells). Description: Melanin production inhibiting effect using mouse melanocytes. Format: cell-based. Particulars: 10 ppm, 3 consecutive days, absorbance at 400 nm. As for the experimental part: Mouse melanocytes (Mel-Ab cells) derived from C57BL/6 mouse (Dooley, T. P. et al, Skin Pharmacol., 7, pp. 188-200) were cultured under the condition of 37° C. and 5% CO2 in DMEM containing 10% FBS, 100 nM 2-O-tetradecanoyphorbol-13-acetate and 1 nM cholera toxin. The cultured Mel-Ab cells were detached with 0.25% trypsin-EDTA and cultured in a 24-well plate, with 10^5 cells/well. From day 2, hydroquinone or the concentrated makgeolli of Example 1 (10 ppm each) was added for 3 consecutive days as test sample. Hydroquinone was used as positive control. Subsequently, after removing the medium and washing with PBS, the cells were suspended in 1 N sodium hydroxide and absorbance was measured at 400 nm. Based on the measurement result, melanin production inhibiting effect was calculated according to Equation 1.
Melanin production inhibiting effect (%)=100−(Absorbance of test sample/Absorbance of control×100) Equation 1

For `Cc1c(C)c2c(c(C)c1O)CCC(C)(C(=O)O)O2` (stereo not shown) [Trolox], in test [1] (1 ppm), the activity at 1 ppm was determined as 76.9%. In addition, in test [1] (10 ppm), the activity at 10 ppm amounted to 74.6%. The activity at 25 ppm in test [1] (25 ppm) worked out at 73.3%. In addition, the activity at 50 ppm in test [1] (50 ppm) amounted to 58.5%. Besides, the “IC50 (concentration at which absorbance is decreased to 50% of control)” value in test [2] came out at 8.64 ppm.
As to `Oc1ccc(O)cc1` [Hydroquinone], the “Change in skin color (ΔL*)” value in the test with human skin is listed as 1.90 ± 0.11. For the same compound, the “Melanin production inhibiting effect (%)” value in test [3] was found to be 41.1%.
